Experimental findings from US12590062B2, “PD-1/PD-L1 inhibitors” (Gilead Sciences, Inc., priority 2017, dated 2026) are described below.

One test addresses T1, PD-1/PD-L1 interaction (Homo sapiens, UniProt Q9NZQ7).
T1 construct: expressed in transfected cells; host or cells: CHO cells (aAPC-PD-L1) co-cultured with Jurkat cells overexpressing PD-1 and an NFAT-luciferase reporter
The test is described as follows: PD-1/PD-L1 NFAT reporter co-culture assay. Format: cell-based. The note with it: Jurkat PD-1 NFAT-luciferase cells co-cultured with aAPC-PD-L1 CHO cells, 6 hrs at 37° C.; read-out: EC50 NFAT Luciferase. The gist of the method:
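Restoration of TCR-driven NFAT luciferase signal: 6 h, 37 °C co-culture of PD-1 Jurkat reporter cells (pre-mixed with compound) on overnight-seeded PD-L1/anti-CD3 CHO monolayer. ONE-Glo luminescence; dose-response fitted to four-parameter equation for EC50.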

The target in another test is T2, PD-L1 (Homo sapiens, UniProt Q9NZQ7).
T2 construct: determine if they can specifically dimerize the extracellular domains of PD-L1
The test is described as follows: PD-L1/PD-L1 dimerization biochemical protein-protein interaction assay (ALPHA). Format: binding. The note with it: compound-induced PD-L1 dimerization, head prints '1 nM' (0.5 nM His-tagged PD-L1 and 0.5 nM FLAG-tagged PD-L1), read-out: AC50 PDL1 Dimer Alpha 1 nM. The gist of the method:
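ALPHA proximity assay of compound-induced dimerization of 0.5 nM His-tagged and 0.5 nM FLAG-tagged PD-L1 extracellular domains in Hepes pH 7.4 buffer, 2 h at 25 °C. Anti-His acceptor then anti-FLAG donor beads, 60 min each; AC50 from four-parameter fit.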

The target in the next test is PD-1/PD-L1 (Homo sapiens, UniProt Q9NZQ7). As to the kind of experiment: PD-1/PD-L1 biochemical protein-protein interaction assay (ALPHA). Conditions: 0.3 nM His tagged PD-L1, 2.5 nM biotinylated Fc-PD-1, 60 minutes at 25° C., read-out: IC50 PD-L1-PD-1 Alpha IC50-mono PD-L1-fcP-D1. It counts as binding. In a few lines:
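Final concentrations 0.3 nM His-tagged PD-L1 and 2.5 nM biotinylated Fc-PD-1 (extracellular domains) were reacted with compound for 60 min at 25° C in pH 7.4 Hepes/NaCl/EDTA/Tween/BSA buffer. Binding was then detected by ALPHA beads, and IC50 values were taken from four-parameter curve fitting.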

pEC50, pIC50: −log10 of the molar value.

T1 sequence (Q9NZQ7 19-290): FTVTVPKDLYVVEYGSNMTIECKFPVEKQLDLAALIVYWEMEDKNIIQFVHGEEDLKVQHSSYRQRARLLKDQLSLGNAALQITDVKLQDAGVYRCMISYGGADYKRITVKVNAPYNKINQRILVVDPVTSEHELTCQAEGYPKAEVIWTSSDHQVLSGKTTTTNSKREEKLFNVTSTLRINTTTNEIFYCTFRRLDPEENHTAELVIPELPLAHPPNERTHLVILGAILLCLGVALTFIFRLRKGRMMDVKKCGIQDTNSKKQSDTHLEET
T2 sequence (Q9NZQ7 19-238 limits assumed): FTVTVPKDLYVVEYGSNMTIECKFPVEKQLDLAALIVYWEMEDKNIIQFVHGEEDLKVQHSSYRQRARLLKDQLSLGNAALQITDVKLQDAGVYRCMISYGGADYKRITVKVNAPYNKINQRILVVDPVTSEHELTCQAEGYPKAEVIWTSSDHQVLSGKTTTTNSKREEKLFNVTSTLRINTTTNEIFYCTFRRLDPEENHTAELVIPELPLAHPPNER
T2 sequence (Q9NZQ7 19-238 limits assumed): as above
Sequence of PD-1/PD-L1 (Q9NZQ7 19-238 limits assumed): as above

A word on the pEC50: it is the EC50 on a negative log10 scale, so that one unit is a factor of ten. The AC50 is the concentration giving half of the maximal activity seen. What is called pIC50 is the IC50 on a negative log10 scale, so that one unit is a factor of ten. For the compound `COc1nc(-c2cccc(-c3cccc4c3CC[C@@H]4Oc3nc(OCc4cncc(C#N)c4)c(CN[C@@](C)(CO)C(=O)O)cc3Br)c2Br)ccc1CNC[C@@H]1CCC(=O)N1` [Example 699], the pEC50 on PD-1/PD-L1 interaction was 6.87. Moreover, the AC50 at PD-L1 worked out at 24.7 nM. Besides, the pIC50 on PD-1/PD-L1 was 9.92.
The like results for `COc1nc(-c2cccc(-c3cccc4c3CC[C@@H]4Oc3nc(OCc4cncc(C#N)c4)c(CN[C@@](C)(CO)C(=O)O)cc3Cl)c2Br)ccc1CNC[C@@H]1CCC(=O)N1` [Example 700] were, in that order, 7.37, 22.1 nM and 10.19.
The like results for `COc1nc(-c2cccc(-c3cccc4c3CC[C@@H]4Oc3nc(OCc4cncc(C#N)c4)c(CNC(C)(C)C(=O)O)cc3Cl)c2Br)ccc1C1=NCCN1` [Example 701] were, in that order, 5.52, 332 nM and 9.09.
The corresponding values for `COc1nc(-c2cccc(-c3cccc4c3CC[C@@H]4Oc3nc(OCc4cncc(C#N)c4)c(CN[C@@](C)(CO)C(=O)O)cc3Cl)c2Br)ccc1C1=NCCN1` [Example 702] are 5.88, 332 nM and 9.50.
Consider `COc1nc(O[C@H]2CCc3c(-c4cccc(-c5cnc(CN6CC(CO)C6)c(OC)n5)c4Cl)cccc32)c(Cl)cc1CN1CC[C@H](C(=O)O)C1` [Example 703], for which, at PD-1/PD-L1 interaction, the pEC50 was 7.96. In addition, the AC50 on PD-L1 worked out at 24.2 nM. At PD-1/PD-L1, the pIC50 was 10.19.
The like results for `COc1nc(-c2cccc(-c3cccc4c3CC[C@@H]4Oc3nc(OC)c(CN4CC[C@H](C(=O)O)C4)cc3Cl)c2Cl)ccc1CN1CC(CO)C1` [Example 704] were, in that order, 7.96, 66.8 nM and 10.19.
`COc1nc(O[C@H]2CCc3c(-c4cccc(-c5cnc(CN6CC(C)(O)C6)c(OC)n5)c4Cl)cccc32)c(Cl)cc1CN1CC[C@H](C(=O)O)C1` [Example 705]: the pEC50 on PD-1/PD-L1 interaction is 7.70. On PD-L1, the AC50 came out at 60.6 nM. Further, the pIC50 on PD-1/PD-L1 is 10.19.
As for `COc1nc(-c2cccc(-c3cccc4c3CC[C@@H]4Oc3nc(OC)c(CN4CC[C@H](C(=O)O)C4)cc3Cl)c2Cl)ccc1CN1CC(C)(O)C1` [Example 706], the pEC50 on PD-1/PD-L1 interaction was 7.85. Moreover, on PD-L1, the AC50 worked out at 42.8 nM. Also, the pIC50 on PD-1/PD-L1 was 10.19.
The like results for `COc1nc(O[C@H]2CCc3c(-c4cccc(-c5cnc(CN6CC(C)(CO)C6)c(OC)n5)c4Cl)cccc32)c(Cl)cc1CN1CC[C@H](C(=O)O)C1` [Example 707] were, in that order, 7.51, 39.3 nM and 10.19.
The like results for `COc1nc(-c2cccc(-c3cccc4c3CC[C@@H]4Oc3nc(OC)c(CN4CC[C@H](C(=O)O)C4)cc3Cl)c2Cl)ccc1CN1CC(C)(CO)C1` [Example 708] were, in that order, 7.47, 38.6 nM and 10.19.
Regarding `COc1nc(O[C@H]2CCc3c(-c4cccc(-c5cnc(CN6CC(O)C6)c(OC)n5)c4Cl)cccc32)c(Cl)cc1CN1CC[C@H](C(=O)O)C1` [Example 709], on PD-1/PD-L1 interaction, the pEC50 was 7.68. For the same compound, the AC50 on PD-L1 is 49.4 nM. The pIC50 on PD-1/PD-L1 was 10.19.
The like results for `COc1nc(-c2cccc(-c3cccc4c3CC[C@@H]4Oc3nc(OC)c(CN4CC[C@H](C(=O)O)C4)cc3Cl)c2Cl)ccc1CN1CC(O)C1` [Example 710] were, in that order, 7.66, 54.6 nM and 10.19.
The corresponding values for `COc1nc(O[C@H]2CCc3c(-c4cccc(-c5cnc(CNC[C@H]6C[C@H](O)C6)c(OC)n5)c4Cl)cccc32)c(Cl)cc1CN1CC[C@H](C(=O)O)C1` [Example 711] are 7.16, 103 nM and 10.16.
For `COc1nc(-c2cccc(-c3cccc4c3CC[C@@H]4Oc3nc(OC)c(CN4CC[C@H](C(=O)O)C4)cc3Cl)c2Cl)ccc1CNC[C@H]1C[C@H](O)C1` [Example 712], the pEC50 on PD-1/PD-L1 interaction was 7.92. The AC50 at PD-L1 was 33 nM. Also, on PD-1/PD-L1, the pIC50 was 10.19.
